Here are results for three compounds from publication PMC5684613 (BioMed Research International, 2017).

Data set [1] in a line: Dissolution studies in FaSSIF and FeSSIF media. It counts as physicochemical. The conditions noted are these: n = 3. Here is the method:
These two biorelevant media, FaSSIF and FeSSIF, were developed to simulate the condition of the intestine in the fasted and fed states.
Blank FaSSIF was prepared by dissolving 6.186 g NaCl, 4.47 g NaH2PO4, and 0.348 g NaOH in 900 ml of distilled water and the pH was adjusted to 6.5 by using 1 N NaOH or HCl using pH meter. The volume was made up to 1000 ml using distilled water.
Blank FaSSIF medium (500 ml) was taken and 2.240 g SIF powder was added to it and this solution was magnetically stirred until the powder completely dissolved to obtain a clear micellar solution. The volume was made up to 1000 ml using the buffer. The solution was allowed to stand for 2 h; it becomes slightly opalescent and thereafter used. A volume of 500 ml is recommended for dissolution for simulating fasted state condition
Blank FeSSIF was prepared by dissolving 8.65 g glacial acetic acid, 11.874 g NaCl, and 4.04 g NaOH in 900 ml of distilled water and the pH was adjusted to 5.0 by using 1 N NaOH or HCl using pH meter. The volume was made up to 1000 ml using distilled water.
Blank FeSSIF medium (500 ml) was taken and 11.20 g SIF powder was added to it and this solution was magnetically stirred until the powder completely dissolved to obtain a clear micellar solution. The volume was made up to 1000 ml using the buffer and thereafter used. For simulating fed state condition 1 L dissolution fluid is recommended.

Data set [2] is described as follows: In vitro permeation study by everted gut sac method. It counts as in vitro ADME, albino Wistar rats. The conditions noted are these: male, albino Wistar, rat, pH 7.4; mucosal to serosal, n = 3; read-out: Apparent permeability coefficient mean ± SD. Here is the method:
(§1) The tissue was continuously aerated (oxygenated) with the aid of an electrical aerator. Intestinal segments of 4 cm were cut and ligated with nylon thread at one end and carefully everted on the glass rod. The everted gut sacs were filled with 500 μl of Tyrode solution and ligated at the other end and then placed inside the test tube containing 15 mL of the test solution continuously bubbled with atmospheric air at 15–20 bubbles per min separately. Test tubes were maintained at temperature 37 ± 0.5°C on water bath. The test solution outside the sac was termed as mucosal fluid, and the solution inside the sac was termed as serosal fluid.

The subject of another data set is everted gut sac. The description is as above. The conditions noted are these: after 2 h, serosal fluid, 1 mg/ml DRV outside. It counts as in vitro ADME, albino Wistar rats. The protocol: as §1
A short description of data set [3]: Oral pharmacokinetic study, fasted and fed state. The conditions noted are these: for K el / AUC(0-t) / AUC / Cmax: oral; for K el / AUC(0-t) / AUC: 70 mg/kg DRV; for AUC(0-t): AUC0-t; for AUC: AUC0-α; for Cmax: C max, 70 mg/kg DRV (8 mg/kg Ritonavir).
A short description of data set [4]: Phase solubility study of DRV in aqueous carrier solutions.
Data set [5] in a line: In vitro dissolution study, USP II paddle, acetate buffer pH 4.5. The conditions noted are these: acetate buffer pH 4.5, after 90 min, n = 3. It counts as physicochemical. The protocol:
Dissolution studies were performed using a USP II Paddle dissolution apparatus (Distek, USA). The prepared SDs were filled in 00 size capsules and placed in Japanese sinkers. The sinkers were then placed in dissolution vessels containing 900 ml of acetate buffer pH 4.5, at 75 rpm and temperature 37 ± 0.5°C. Samples (5 ml) were collected periodically at 15, 30, 45, 60, and 90 min, filtered through a 0.45 μm PVDF filter and replaced with a fresh dissolution medium (5 ml). The concentrations were analyzed at 264 nm by UV spectrophotometer.

For data set [6] the following is noted: cited from earlier work.
On the set-up of data set [7]: method as in Kim et al. [32]. The conditions noted are these: simultaneous administration of curcumin, rats; ref Kim et al. [32]; cited from earlier work.
On the set-up of data set [8]: method as in Varma and Panchagnula [30]. The conditions noted are these: ref Varma and Panchagnula [30], cited from earlier work.
The mark [9] stands for this setting: male, albino Wistar, rat, in vivo, po, 70 mg/kg, Group A (fasted).
Where [10] appears, read: male, albino Wistar, rat, in vivo, po, 70 mg/kg, Group B (fed).

The structures appear in SMILES notation. Converted amounts (≈) assume the structure as drawn. Read-outs that look alike come from different tables or passages of the source.

Broadly, the Tmax is the time at which the peak concentration occurs. As a reminder, the AUC(0-t) is exposure summed from dosing to a finite time, without extrapolation to infinity. High values mean more exposure, low ones less exposure. The term AUC denotes the area under the concentration-time curve, a measure of exposure. A higher AUC goes with more exposure. A word on the Cmax: it is the highest concentration seen after dosing. The solubility is how much of the substance goes into solution per volume. Consider `CC(C)CN(C[C@@H](O)[C@H](Cc1ccccc1)NC(=O)O[C@H]1CO[C@H]2OCC[C@H]21)S(=O)(=O)c1ccc(N)cc1` [DRV, Darunavir], for which the “Cumulative % drug release (±SD) in FaSSIF” value stood at 13.8 ± 0.239% in data set [1] (after 30 min), 25.7 ± 0.512% in [1] (after 60 min) and 31.2 ± 0.425% in data set [1] (after 90 min). Further, in data set [2], the Papp at 120 min, 1 mg/ml turned out to be 0.828 ± 0.12 ×10⁻⁶ cm/s. The “concentration of the drug inside the sac” value in the data set with everted gut sac amounted to 451480 ± 4020 ng/mL. Further, the K el in data set [3] (Group A (fasted)) is reported as 0.211 ± 0.002; in data set [3] (Group B (fed)) it was 0.228 ± 0.003. In data set [3] (male, albino Wistar, rat, in vivo, po, 70 mg/kg), the Tmax came out at 1 h. For the same compound, the AUC(0-t) in data set [3] (setting [9]) is 116 ng·h/mL; in [3] (setting [10]), 258 ng·h/mL. Also, the AUC in data set [3] (setting [9]) is 117 ng·h/mL; in data set [3] (setting [10]), 259 ng·h/mL. In addition, the Cmax in [3] (setting [9]) was found to be 2860 ± 366 ng/mL; in [3] (setting [10]), 5870 ± 565 ng/mL. Moreover, the solubility at 72 h in [4] was found to be 150 µg/mL (≈ 274 µM). Besides, the “Cumulative % drug release (±SD)” value in data set [5] is listed as 30.9%. In addition, the solubility in water in data set [6] was 150 µg/mL (≈ 274 µM).
For `CC(C)(C)NC(=O)[C@@H]1C[C@@H]2CCCC[C@@H]2CN1C[C@@H](O)[C@H](Cc1ccccc1)NC(=O)[C@H](CC(N)=O)NC(=O)c1ccc2ccccc2n1` [Saquinavir], the “increase of oral exposure” value in data set [7] was 2.7 fold.
`CC(=O)O[C@H]1C(=O)[C@@]2(C)[C@H]([C@H](OC(=O)c3ccccc3)[C@]3(O)C[C@H](OC(=O)[C@H](O)[C@@H](NC(=O)c4ccccc4)c4ccccc4)C(C)=C1C3(C)C)[C@]1(OC(C)=O)CO[C@@H]1C[C@@H]2O` [paclitaxel]: the Intrinsic permeability in [8] (in the presence of 1 mg/ml TPGS) is 22 ×10⁻⁶ cm/s; in data set [8] (without TPGS), 8 ×10⁻⁶ cm/s.
